Measurements published in US6750244B2, “Compounds active at a novel site on receptor-operated calcium channels useful for treatment of neurological disorders and diseases” (NPS Pharmaceuticals, Inc., priority 1993, dated 2004).
Entries after “also recorded” stand apart in the source; their conditions may differ. Like-named read-outs stand apart in the source and are kept apart here.

What was measured:
[1] = target: voltage-sensitive Ca2+ channels (Rattus norvegicus, UniProt P22002); test: cell-based
voltage-sensitive Ca2+ channels, sequence (P22002 whole entry): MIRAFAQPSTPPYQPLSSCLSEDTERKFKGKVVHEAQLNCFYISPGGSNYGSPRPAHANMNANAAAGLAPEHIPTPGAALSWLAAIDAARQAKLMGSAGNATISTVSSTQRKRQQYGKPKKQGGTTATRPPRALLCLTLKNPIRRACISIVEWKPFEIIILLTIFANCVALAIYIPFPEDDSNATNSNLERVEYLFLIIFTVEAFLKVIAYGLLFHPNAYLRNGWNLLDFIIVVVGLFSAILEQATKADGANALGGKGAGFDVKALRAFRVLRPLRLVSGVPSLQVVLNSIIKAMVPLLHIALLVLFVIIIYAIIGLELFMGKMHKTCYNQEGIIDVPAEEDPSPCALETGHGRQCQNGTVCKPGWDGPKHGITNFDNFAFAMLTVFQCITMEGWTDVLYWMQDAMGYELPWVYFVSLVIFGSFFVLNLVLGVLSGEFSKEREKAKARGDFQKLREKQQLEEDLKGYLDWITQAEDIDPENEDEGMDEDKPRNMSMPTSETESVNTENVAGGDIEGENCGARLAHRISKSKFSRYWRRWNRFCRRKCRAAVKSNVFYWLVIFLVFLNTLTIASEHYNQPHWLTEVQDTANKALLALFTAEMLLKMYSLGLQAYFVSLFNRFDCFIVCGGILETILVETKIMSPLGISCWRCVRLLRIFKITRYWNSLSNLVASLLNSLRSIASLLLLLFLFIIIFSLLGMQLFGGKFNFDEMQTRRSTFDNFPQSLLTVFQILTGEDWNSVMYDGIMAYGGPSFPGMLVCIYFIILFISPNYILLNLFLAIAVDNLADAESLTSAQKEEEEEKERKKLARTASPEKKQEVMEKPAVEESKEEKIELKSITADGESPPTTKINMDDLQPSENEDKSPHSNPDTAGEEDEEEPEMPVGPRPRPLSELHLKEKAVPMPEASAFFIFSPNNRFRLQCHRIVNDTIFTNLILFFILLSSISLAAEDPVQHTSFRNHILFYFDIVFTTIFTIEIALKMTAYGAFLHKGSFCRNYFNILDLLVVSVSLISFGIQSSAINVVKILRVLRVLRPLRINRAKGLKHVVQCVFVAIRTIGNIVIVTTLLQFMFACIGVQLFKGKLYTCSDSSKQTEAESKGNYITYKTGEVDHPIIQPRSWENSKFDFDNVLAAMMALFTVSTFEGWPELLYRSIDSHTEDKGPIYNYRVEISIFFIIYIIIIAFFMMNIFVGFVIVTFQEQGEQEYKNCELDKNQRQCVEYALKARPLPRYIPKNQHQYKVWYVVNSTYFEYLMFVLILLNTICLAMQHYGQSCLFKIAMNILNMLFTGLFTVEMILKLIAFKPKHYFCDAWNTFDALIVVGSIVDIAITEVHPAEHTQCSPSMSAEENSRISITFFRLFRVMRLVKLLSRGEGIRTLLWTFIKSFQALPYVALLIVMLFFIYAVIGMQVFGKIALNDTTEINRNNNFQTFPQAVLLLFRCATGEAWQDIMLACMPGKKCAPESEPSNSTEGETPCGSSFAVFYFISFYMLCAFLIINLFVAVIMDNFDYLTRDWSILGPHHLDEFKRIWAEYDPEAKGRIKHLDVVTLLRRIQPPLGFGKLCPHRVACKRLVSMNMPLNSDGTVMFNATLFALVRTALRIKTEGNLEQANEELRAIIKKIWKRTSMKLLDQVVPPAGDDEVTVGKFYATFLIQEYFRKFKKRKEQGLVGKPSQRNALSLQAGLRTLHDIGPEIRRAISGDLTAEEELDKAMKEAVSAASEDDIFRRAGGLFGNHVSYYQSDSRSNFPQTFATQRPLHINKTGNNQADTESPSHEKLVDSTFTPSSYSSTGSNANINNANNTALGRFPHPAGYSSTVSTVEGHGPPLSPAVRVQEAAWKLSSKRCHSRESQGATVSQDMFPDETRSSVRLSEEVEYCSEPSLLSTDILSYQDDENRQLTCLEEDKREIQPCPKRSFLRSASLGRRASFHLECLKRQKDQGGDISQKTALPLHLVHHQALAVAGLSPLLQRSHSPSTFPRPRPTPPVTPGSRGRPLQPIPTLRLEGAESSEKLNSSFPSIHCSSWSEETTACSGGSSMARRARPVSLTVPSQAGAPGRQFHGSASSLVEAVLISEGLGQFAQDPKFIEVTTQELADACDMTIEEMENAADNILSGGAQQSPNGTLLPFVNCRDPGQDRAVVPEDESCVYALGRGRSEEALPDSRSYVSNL
Excerpt: (§1) The ability of arylalkylamines to inhibit dihydropyridine-sensitive Ca^2+ channels was examined in cerebellar granule cells and a rat aortic smooth muscle cell line, A7r5 cells.

[2] = test system: forebrain ischemia (neuronal cell death); assay type: in vivo, gerbil; conditions: 10 mg/kg; 7 days post-ischemia
Experimental: Blood flow to the brain was interrupted for 7 minutes by clamping the carotid arteries. The test compounds were administered as a 'single dose given intraperitoneally (i.p.) 30 minutes after reinstating blood flow. During the course of these experiments, the core body temperature of the animals was maintained at 37° C. to prevent any hypothermic reaction. […]

[3] = test system: mean arterial blood pressure; conditions: rats
locomotor activity = conditions: 32 mg/kg s.c.
Experimental: The first assay simply monitors locomotor activity during the first hour following peripheral (s.c. or i.p.) administration of test substance. […] Activity was quantified by counting the number of breaks in a phototube grid in a 60 min period.

motor performance [4] = conditions: 32 mg/kg s.c.
Excerpt: In this assay, animals are placed on a wire-holed grid suspended from a rotating metal bar which can be inverted. The animals are then scored for their ability to climb to the top or hang on to the grid. […] This assay provides an index of “behavioral disruption” that may result from ataxia, loss of the righting reflex, sedation, or muscle relaxation.

neuronal vacuolization = conditions: i.p.
[5] = test system: PCP-like discriminative stimulus effects; assay type: in vivo, rats
Excerpt: In this assay, rats who have been trained to lever press for food reinforcement must select which of two levers in their cages is correct. The only stimulus they hive for selecting the correct lever is their ability to detect whether they received a PCP or vehicle injection After about two months of training, rats become very good at discriminating PCP from vehicle injections and can then be tested with other drugs to determine if they are discriminated as PCP. When tested in this procedure, other drugs which are known to produce a PCP-like intoxication substitute for PCP. These drugs include various PCP analogs such as ketamine and the noncompetitive NMDA receptor antagonist, MK-801.

L-type calcium channel = test system: T1, L-type calcium channel; test: Inhibition of KCl depolarization-induced increases in intracellular calcium in cultured rat cerebellar granule cells; assay type: cell-based
T1 construct: L-type calcium channel: estimated IC50, KCl depolarization-induced increases in intracellular calcium; other: cultured
Excerpt: as §1

NMDA receptor [6] = test: Inhibition of NMDA/glycine-induced increases in intracellular calcium in cultured rat cerebellar granule cells (RCGC); assay type: cell-based
[7] = test system: acetic acid-induced writhing; assay type: in vivo, mice; conditions: i.p.
NMDA receptor [8] = conditions: rat hippocampal slices
Experimental: (§2) Glutamate-mediated transmission at synapses of Schaffer collateral fibers and CA1 pyramidal cells was measured in slices of rat brain containing the hippocampus. This assay measures electrophysiologically the postsynaptic depolarization caused by the presynaptic release of glutamate, and can readily distinguish synaptic transmission mediated by NMDA or AMPA receptors.

AMPA receptor = conditions: read-out: IC50 for the AMPA receptor-mediated response; rat hippocampal slices
Experimental: as §2

focal cerebral ischemia = test: Middle cerebral artery occlusion, permanent, surgical ligation; assay type: in vivo, rat; conditions: single dose 30 mg/kg i.p. 30 minutes after occlusion; 24 hours
Experimental: In the first study using this stroke model, one cerebral artery was permanently occluded by surgical ligation. The test compounds were administered 30 minutes after the occlusion by a single intraperitoneal (i.p.) injection. During the course of these experiments, the core body temperature of the animals was maintained at 37° C. to prevent any hypothermic reaction. Brains were assessed histologically for neuronal cell loss 24 hours later. Infarct volumes were calculated using the area of histological pallor from 10 slides and integrating the distance between each successive section.

mouse cortical neurons = test: cells; conditions: Cortical neurone, read-out: IC50, prevention of NMDA-induced cell death
Excerpt: The effective concentrations of NMDA receptor antagonists vary depending on the particular experimental conditions and the type of cell studied (cortical, hippocampal, striatal).

motor performance [9] = test: Acute motor impairment (rotorod) in mice
Experimental: (§3) In this assay, Frings and CF1 mice were injected with test compound and placed on a knurled rod which rotated at a speed of 6 rpm. The ability of the mice to maintain equilibrium for long periods of time was determined; those mice that were unable to maintain equilibrium on the rotorod for 1 min in each of 3 trials were considered impaired.

[10] = Acute motor impairment (rotorod) in mice; conditions: mouse, in vivo, ip
Experimental: as §3

[11] = test system: maximal electroshock-induced seizures; test: Maximal electroshock-induced seizures in mice; assay type: in vivo; conditions: for ED50: Mus musculus, mice
[12] = test system: formalin-induced flinching; assay type: in vivo, Sprague-Dawley rats; conditions: 0.3-10 nmol i.th.
sound-induced seizures = test: Sound-induced seizures in Frings mice (reflex epilepsy); assay type: in vivo
thermal nociception [13] = assay type: in vivo, rats; conditions: 0.3-3 nmol i.th.
Experimental: In these experiments, a 52° C. hot plate was used as the nociceptive stimulus.

thermal nociception [14] = assay type: in vivo, rats; conditions: 0.3-3 nmol i.th.; remark: listed apart in the source
Experimental: In this standard assay, the thermal nociceptive stimulus was 52° C. warm water with the latency to tail flick or withdrawal taken as the endpoint.

thermal nociception [15] = assay type: in vivo, mice
[16] = target: NMDA receptor-ionophore complex (site labeled by [3H]MK-801); test: Inhibition of [3H]MK-801 binding in rat cortical/hippocampal washed membrane preparations; conditions: read-out: IC50 (μM) vs. [3H]MK-801; rat cortical/hippocampal washed membranes
NMDA receptors = conditions: patch clamp
induction of LTP = test system: induction of LTP; design: species or system rat; conditions: at 100 μM
[17] = test system: PCP-like stereotypic behavior; test: PCP-like stereotypic behavior (hyperexcitability and head weaving) in rats; conditions: 30 mg/kg i.p.
Excerpt: We investigated whether the arylalkylamines would elicit such behaviors.

[18] = test system: central muscarinic cholinergic receptor; assay type: binding, rat
PBQ-elicited writhing = assay type: in vivo; conditions: 16 mg/kg i.p.
Experimental: In the first series of experiments, the animals were administered an unpleasant stimulus (2-phenyl-1,4-benzoquinone, PBQ) which elicits a writhing response (abdominal stretching). Typically, the number of writhes occurring in a 5 min observation period is recorded. […] Nonsteroidal antiinflammatory agents are likewise effective in this model.

[19] = test system: delayed rectifier potassium channel; test: Inhibition of delayed rectifier potassium channel in cultured N1E-115 neuroblastoma cells; assay type: cell-based; conditions: read-out: Delayed rectifier potassium channel: estimated IC50

## N=C(N)NCCCC(N)C(=O)NCCCNCCCNCCCCCNC(=O)C(CC(N)=O)NC(=O)Cc1ccc(O)cc1O (centres unmarked) [Compound 1]
[1]
  IC50: 808 µM
[2]
  reduction in neuronal death / protection in region CA1 of the hippocampus: 23%
[3]; 1.5 μmoles/kg i.v.
  Drop in Mean Arterial Blood Pressure: 65 mm Hg at
  Drop in Mean Arterial Blood Pressure: duration: i.v., 60 min
Locomotor activity
  effect on locomotor activity: did not elicit hyperactivity
Motor performance [4]
  motor performance in the inverted grid assay: did not lessen the ability of DBA/2 mice to right themselves
Neuronal vacuolization
  dose without neuronal vacuolization: 100 mg/kg
[5]; 1-30 mg/kg i.p.
  substitution for PCP: did not substitute for PCP
L-type calcium channel; read-out: L-type calcium channel: estimated IC50, KCl depolarization-induced increases in intracellular calcium; cultured rat cerebellar granule cells
  IC50: 257 µM
NMDA receptor [6]; read-out: IC50 against NMDA receptor-mediated increases in [Ca2+]i in cerebellar granule cells
  IC50: 0.102 µM
[7]
  IC50, inhibition of acetic acid-induced writhing: 10 mg/kg
NMDA receptor [8]
  Suppression of NMDA Receptor-Mediated Synaptic Transmission (concentration which suppresses): 10 to 30 µM
NMDA receptor [8]; read-out: IC50 for the NMDA receptor-mediated response
  IC50: 20 µM
AMPA receptor
  IC50: 647 µM
Focal cerebral ischemia
  protection against neuronal cell loss: approximately 15%
Mouse cortical neurons
  IC50: 70 µM
Motor performance [9]; 4 μg i.c.v.
  motor impairment in CF1 mice: motor impairment
Motor performance [9]; Frings mice, i.c.v.
  dose that had to be exceeded before motor toxicity was evident: exceeded 1.56 μg
[10]; Frings
  TD50: 16.8 mg/kg
[11]; CF1 mice, 4 μg i.c.v.
  effect against seizures elicited by maximal electroshock: effective
[12]; 10 min after formalin
  late-phase flinching, administered after the formalin: significance was achieved only at the 10 nmol dose
[12]; 10 min prior to formalin
  flinching behaviors, pretreatment to formalin: effectively inhibited both early- and late-phase flinching behaviors
sound-induced seizures; intracerebroventricular (i.c.v.) injection
  IC50, prevention of sound-induced seizures: 0.63 µg
sound-induced seizures; intraperitoneal injection
  IC50, prevention of sound-induced seizures: 14.3 mg/kg
Thermal nociception [13]
  antinociceptive effect, hot plate: dose- and time-dependent antinociceptive effects
Thermal nociception [14]
  analgesic effect, tail flick (52° C. warm water): dose- and time-dependent analgesic effect
Thermal nociception [15]; 4 mg/kg s.c.
  increase in latency to foot licking: 136%
Thermal nociception [15]; 32 mg/kg s.c.
  increase in latency to jumping: 360%
[16]
  IC50: 126 µM
NMDA receptors
  effect on responses to NMDA and kainate: blocked responses to NMDA at nanomolar concentrations without affecting the responses to kainate

## NCCC(c1ccccc1)c1ccccc1 [Compound 19, 3,3-diphenylpropylamine]
[3]; s.c.
  without effect on blood pressure at doses up to: up to 100 mg/kg
[5]; i.p., rats
  no generalization to PCP at doses up to the behaviorally active dose of: ≤ 30 mg/kg
L-type calcium channel; cultured rat cerebellar granule cells; read-out: L-type calcium channel: estimated IC50, KCl depolarization-induced increases in intracellular calcium
  IC50: 10.2 µM
NMDA receptor [6]; NMDA/glycine-induced increases in intracellular calcium, cultured rat cerebellar granule cells, read-out: IC50 (μM) vs. NMDA
  IC50: 0.435 µM
Induction of LTP
  LTP Assay (block of the induction of LTP): did block; also recorded: block at 100
NMDA receptor [8]
  Suppression of NMDA Receptor-Mediated Synaptic Transmission (concentration which suppresses): 100 to 300 µM
[17]
  PCP-like stereotypic behavior (hyperexcitability and head weaving): no PCP-like stereotypic behavior
[18]; at 0.1 μM
  Central muscarinic cholinergic receptor: percent block of [3H]QNB binding: 4% at
[18]; at 10 μM
  Central muscarinic cholinergic receptor: percent block of [3H]QNB binding: 0.174%
Motor performance [9]; mice, 30 mg/kg p.o.
  motor impairment: motor impairment
[10]
  TD50: 43.8 mg/kg
[11]; ip
  ED50: 26.4 mg/kg
[11]; oral (p.o.)
  ED50: 35 mg/kg
PBQ-elicited writhing
  analgesic activity in the PBQ-induced writhing assay: significant analgesic activity
[19]
  IC50: 1 to 10 µM
Thermal nociception [15]; 16 mg/kg i.p.
  analgesic activity in the hot-plate assay: significant analgesic activity
[16]
  IC50: 2.1 µM
